Source: patent publication US7973219B2, “Method for producing transgenic plants resistant to weed control compounds which disrupt the porphyrin pathways of plants” (Sumitomo Chemical Company, Limited, priority 1998, dated 2011)

How the values were obtained:
[1] = test system: E. coli BT3/pACYCSP+pTCHLH1 strain; assay: Growth of E. coli BT3/pACYCSP+pTCHLH1 (variant tobacco chelatase subunit) with herbicidal compound; assay type: cell-based, Escherichia coli; conditions: 18 hours culture, Table 6
From the text: According to the description of Gibson, L. C. D. et al., Proc. Natl. Acad. Sci. USA, 92; p 1941 (1995), the DNA fragment containing bchH gene prepared in Example 1 was digested with the restriction enzymes NdeI and BglII. The resultant DNA fragment was inserted between NdeI restriction site and BamHI restriction site of expression vector pET11a (manufactured by Stratagene) to obtain plasmid pETBCH (FIG. 1). This plasmid pETBCH was introduced into E. coli BL21(DE3) strain competent cells (manufactured by Stratagene) according to the manual attached to the competent cells to obtain E. coli BL21(DE3)/pETBCH strain. The strain was inoculated into 1.5 ml LB liquid culture medium (1% tryptone, 0.5% yeast extract, 0.5% NaCl) containing 100 μg/ml ampicillin in a tube (14×10 mm), and the tube was covered with aluminum foil (hereinafter referred to as dark conditions), cultured with shaking at 37° C. under light of fluorescent lamp (about 8000 lux). When the absorbance at 600 nm of the liquid culture medium became about 0.6, isopropyl β-D-thiogalactopyranoside (IPTG) was added to the liquid culture medium so that the final concentration was 0.4 mM, and the culture was continued for about additional 20 hours. […] In contrast to this, when E. coli BL21(DE3)/pETBCH strain was cultured according to the same manner (with IPTG) except that the tube was not covered with aluminum foil (hereinafter referred to as light conditions), E. coli grew and turned red as above.
The plasmid pTCHLH1 and pCR2.1 prepared in Example 7 were introduced into E. coli BT3/pACYCSP strain prepared in Example 3, respectively according to the method described in Hanahan, D. J., Mol. Biol., 166; p 557 (1983). E. coli BT3/pACYCSP+pTCHLH1 strain bearing plasmids pACYCSP and pTCHLH1, and E. coli BT3/pACYCSP+pCR2.1 strain bearing plasmids pACYCSP and pCR2.1 were obtained by culturing the above strains in YPT medium containing 100 μg/ml ampicillin, 15 μg/ml chloramphenicol and 50 μg/ml kanamycin, respectively.
These E. coli strains were inoculated into YPT medium containing 10 or 1 ppm of the PPO inhibitory-type herbicidal compound represented by Structure 8, 100 μg/ml ampicillin, 15 μg/ml chloramphenicol, 50 μg/ml kanamycin, 10 μg/ml hemin and 50 μg/ml aminolevulinic acid, cultured under dark conditions or light conditions according to the same manner as in Example 2. Then, 18 hours after initiation of culture, the absorbance of the liquid culture medium was measured at 600 nm. By taking the absorbance of the medium without the herbicidal compound as 1, the relative value of the absorbance of the medium containing the herbicidal compound was calculated.

[2] = test system: E. coli BT3/pACYCSP+pHASYS strain; assay: Growth of E. coli BT3/pACYCSP+pHASYS with herbicidal compound; assay type: cell-based, Escherichia coli; conditions: 1 ppm, 18 hours culture, Table 15
From the text: According to the description of Gibson, L. C. D. et al., Proc. Natl. Acad. Sci. USA, 92; p 1941 (1995), the DNA fragment containing bchH gene prepared in Example 1 was digested with the restriction enzymes NdeI and BglII. The resultant DNA fragment was inserted between NdeI restriction site and BamHI restriction site of expression vector pET11a (manufactured by Stratagene) to obtain plasmid pETBCH (FIG. 1). This plasmid pETBCH was introduced into E. coli BL21(DE3) strain competent cells (manufactured by Stratagene) according to the manual attached to the competent cells to obtain E. coli BL21(DE3)/pETBCH strain. The strain was inoculated into 1.5 ml LB liquid culture medium (1% tryptone, 0.5% yeast extract, 0.5% NaCl) containing 100 μg/ml ampicillin in a tube (14×10 mm), and the tube was covered with aluminum foil (hereinafter referred to as dark conditions), cultured with shaking at 37° C. under light of fluorescent lamp (about 8000 lux). When the absorbance at 600 nm of the liquid culture medium became about 0.6, isopropyl β-D-thiogalactopyranoside (IPTG) was added to the liquid culture medium so that the final concentration was 0.4 mM, and the culture was continued for about additional 20 hours. […]

C#CCOc1cc(N2C(=O)C3=C(CCCC3)C2=O)c(F)cc1Cl [Structure 8] showed a Relative absorbance ([1]; in the dark, 1 ppm) of 0.93, a Relative absorbance ([1]; in the dark, 10 ppm) of 0.92 and a Relative absorbance ([1]; in the light, 1 ppm) of 0.89. It also gave a Relative absorbance ([1]; in the light, 10 ppm) of 0.69, a Relative absorbance ([2]; in the dark) of 0.96 and a Relative absorbance ([2]; in the light) of 0.65.
